Experimental data: ChEMBL document CHEMBL1132748, “Synthesis and antiviral activities of N-9-oxypurine 1,3-dioxolane and 1,3-oxathiolane nucleosides” (2000)
Active and inactive are the calls of the source. The rule behind the calls is not given here.

What was measured:
[1] = test system: Human alphaherpesvirus 2; assay: Anti-herpetic activity and cytotoxicity of compound was evaluated against HSV-2 (186 strain) at concentration 100 ug/mL; inactive; assay type: functional, organism-based
[2] = test system: Human alphaherpesvirus 1; assay: Anti-herpetic activity and cytotoxicity of compound was evaluated against HSV-1 (KOS strain) at concentration up to 100 ug/mL; inactive; assay type: functional, organism-based
[3] = test system: Human alphaherpesvirus 1; assay: Anti-herpetic activity and cytotoxicity was evaluated against HSV-1 (KOS strain) in plaque reduction assay in vero cells and Flow 2002 (human fibroblast) cell; inactive; assay type: functional, organism-based
[4] = test system: Human immunodeficiency virus; assay: Antiviral activity was assessed against HIV in MT-4 (human T-helper) cells at a concentration up to 100 ug/mL; inactive; assay type: functional, organism-based
[5] = test system: Human alphaherpesvirus 2; assay: Anti-herpetic activity and cytotoxicity was evaluated against HSV-2 (186 strain) in plaque reduction assay in vero cells and Flow 2002 (human fibroblast) cell; inactive; assay type: functional, organism-based
[6] = test system: Hepatitis B virus; assay: Antiviral activity was assessed against HBV in hepatoma cell line 2.2.15; inactive; assay type: functional, organism-based; settings: HepG2 2.2.15
[7] = test system: Human betaherpesvirus 5; assay: Anti-herpetic activity and cytotoxicity evaluated against HCMV-1 (WFI strain) in plaque reduction assay in vero cells and Flow 2002 (human fibroblast) cell; inactive; assay type: functional, organism-based
[8] = species on record: Homo sapiens; assay: Cytotoxicity was assessed against in MT-4 (human T-helper) cells at a concentration up to 100 ug/mL; inactive; assay type: functional, cell-based
[9] = test system: Human immunodeficiency virus; assay: Cytotoxicity of compound was assessed against HIV in MT-4 (human T-helper) cells; inactive; assay type: functional

Nc1nc(O)c2ncn(O[C@H]3COC(CO)O3)c2n1 (stereo not given in full)
Activity [1]: inactive | Activity [2]: inactive

OCC1O[C@H](On2cnc3c(Cl)ncnc32)CS1 (stereo not given in full)
Activity [3]: inactive | Activity [4]: inactive | Activity [5]: inactive | Activity [6]: inactive | Activity [7]: inactive | Activity [8]: inactive

COc1ncnc2c1ncn2O[C@@H]1CSC(CO)O1 (stereo not given in full)
Activity [3]: inactive | Activity [4]: inactive | Activity [5]: inactive | Activity [6]: inactive | Activity [7]: inactive | Activity [8]: inactive

OCC1O[C@H](On2cnc3c(O)ncnc32)CS1 (stereo not given in full)
Activity [3]: inactive | Activity [4]: inactive | Activity [5]: inactive | Activity [6]: inactive | Activity [7]: inactive | Activity [8]: inactive

Nc1nc(O)c2ncn(O[C@@H]3COC(CO)O3)c2n1 (stereo not given in full)
Activity [1]: inactive | Activity [2]: inactive

COc1ncnc2c1ncn2O[C@@H]1COC(CO)O1 (stereo not given in full)
Activity [3]: inactive | Activity [4]: inactive | Activity [5]: inactive | Activity [6]: inactive | Activity [7]: inactive | Activity [8]: inactive

Nc1ncnc2c1ncn2O[C@H]1COC(CO)O1 (stereo not given in full)
Activity [3]: inactive | Activity [4]: inactive | Activity [5]: inactive | Activity [6]: inactive | Activity [7]: inactive | Activity [8]: inactive

OCC1OC[C@@H](On2cnc3c(Cl)ncnc32)O1 (stereo not given in full)
Activity [3]: inactive | Activity [4]: inactive | Activity [5]: inactive | Activity [6]: inactive | Activity [7]: inactive | Activity [8]: inactive

Nc1ncnc2c1ncn2O[C@H]1CSC(CO)O1 (stereo not given in full)
Activity [3]: inactive | Activity [4]: inactive | Activity [5]: inactive | Activity [6]: inactive | Activity [7]: inactive | Activity [8]: inactive

Nc1ncnc2c1ncn2O[C@@H]1COC(CO)O1 (stereo not given in full)
Activity [3]: inactive | Activity [4]: inactive | Activity [5]: inactive | Activity [6]: inactive | Activity [7]: inactive | Activity [8]: inactive

OCC1O[C@@H](On2cnc3c(Cl)ncnc32)CS1 (stereo not given in full)
Activity [3]: inactive | Activity [4]: inactive | Activity [5]: inactive | Activity [6]: inactive | Activity [7]: inactive | Activity [8]: inactive

Nc1ncnc2c1ncn2O[C@@H]1CSC(CO)O1 (stereo not given in full)
Activity [3]: inactive | Activity [4]: inactive | Activity [5]: inactive | Activity [6]: inactive | Activity [7]: inactive | Activity [8]: inactive

OCC1OC[C@@H](On2cnc3c(O)ncnc32)O1 (stereo not given in full)
Activity [3]: inactive | Activity [4]: inactive | Activity [5]: inactive | Activity [6]: inactive | Activity [7]: inactive | Activity [8]: inactive

COc1ncnc2c1ncn2O[C@H]1CSC(CO)O1 (stereo not given in full)
Activity [3]: inactive | Activity [4]: inactive | Activity [5]: inactive | Activity [6]: inactive | Activity [7]: inactive | Activity [8]: inactive

OCC1OC[C@H](On2cnc3c(Cl)ncnc32)O1 (stereo not given in full)
Activity [3]: inactive | Activity [4]: inactive | Activity [5]: inactive | Activity [6]: inactive | Activity [7]: inactive | Activity [8]: inactive

OCC1O[C@@H](On2cnc3c(O)ncnc32)CS1 (stereo not given in full)
CD50 [9]: 10 µg/mL | Activity [3]: inactive | Activity [4]: inactive | Activity [5]: inactive | Activity [6]: inactive | Activity [7]: inactive

COc1ncnc2c1ncn2O[C@H]1COC(CO)O1 (stereo not given in full)
Activity [3]: inactive | Activity [4]: inactive | Activity [5]: inactive | Activity [6]: inactive | Activity [7]: inactive | Activity [8]: inactive

OCC1OC[C@H](On2cnc3c(O)ncnc32)O1 (stereo not given in full)
Activity [3]: inactive | Activity [4]: inactive | Activity [5]: inactive | Activity [6]: inactive | Activity [7]: inactive | Activity [8]: inactive
